ChEMBL document CHEMBL4818987, “Recent advances of podophyllotoxin/epipodophyllotoxin hybrids in anticancer activity, mode of action, and structure-activity relationship: An update (2010-2020)” (Eur J Med Chem, 2020)

Legend:
Assay type in all cases: functional, cell-based
MCF7 = test: Antiproliferative activity against human MCF7 cells incubated for 48 hrs by MTT assay; conditions: MCF7, 48 h
A549 = test: Antiproliferative activity against human A549 cells incubated for 48 hrs by MTT assay; conditions: A549, 48 h
HepG2 [1] = test: Antiproliferative activity against human HepG2 cells incubated for 48 hrs by MTT assay; conditions: HepG2, 48 h
HeLa = test: Antiproliferative activity against human HeLa cells incubated for 48 hrs by MTT assay
SMMC-7721 = test: Antiproliferative activity against human SMMC-7721 cells incubated for 48 hrs by MTT assay; conditions: SMMC-7721, 48 h
SW480 = test: Antiproliferative activity against human SW480 cells incubated for 48 hrs by MTT assay; conditions: SW480, 48 h
HL-60 = test: Antiproliferative activity against human HL-60 cells incubated for 48 hrs by MTT assay; conditions: HL-60, 48 h
MKN-45 = test: Antiproliferative activity against human MKN-45 cells incubated for 48 to 72 hrs by MTT assay
B16 = test: Antiproliferative activity against […] cells incubated for 48 to 72 hrs by MTT assay; conditions: Mus musculus
HepG2 [2] = test: Antiproliferative activity against human HepG2 cells incubated for 48 to 72 hrs by MTT assay
NCI-H1993 = test: Antiproliferative activity against human NCI-H1993 cells incubated for 48 to 72 hrs by MTT assay

CCC[C@@H]1O[C@H](O[C@H]2c3cc4c(cc3[C@@H](c3cc(OC)c(OC)c(OC)c3)[C@H]3C(=O)OC[C@@H]32)OCO4)CC[C@H]1O
IC50 (MCF7): 41.6 nM
IC50 (A549): 41.6 nM
IC50 (HepG2 [1]): 41.6 nM
IC50 (HeLa): 41.6 nM

COc1cc([C@@H]2c3cc4c(cc3[C@@H](OC(=O)CCCC[C@@H]3SC[C@@H]5NC(=O)N[C@@H]53)[C@H]3COC(=O)[C@H]23)OCO4)cc(OC)c1OC
IC50 (MCF7): > 130 nM
IC50 (SMMC-7721): > 130 nM
IC50 (A549): > 130 nM
IC50 (SW480): > 130 nM
IC50 (HL-60): > 130 nM

COc1cc([C@@H]2c3cc4c(cc3[C@@H](NC(=O)CCCCCNC(=O)CCCC[C@@H]3SC[C@@H]5NC(=O)N[C@@H]53)[C@H]3COC(=O)[C@H]23)OCO4)cc(OC)c1O
IC50 (MCF7): > 130 nM
IC50 (SMMC-7721): > 130 nM
IC50 (A549): > 130 nM
IC50 (SW480): > 130 nM
IC50 (HL-60): > 130 nM

CC[C@H]1O[C@@H](O[C@@H]2c3cc4c(cc3[C@@H](c3cc(OC)c(O)c(OC)c3)[C@H]3C(=O)OC[C@@H]32)OCO4)CC[C@H]1O
IC50 (MCF7): 41.6 nM
IC50 (A549): 41.6 nM
IC50 (HepG2 [1]): 41.6 nM
IC50 (HeLa): 41.6 nM

COc1cc([C@@H]2c3cc4c(cc3[C@@H](n3cc(COC(=O)CCCC[C@@H]5SC[C@@H]6NC(=O)N[C@@H]65)nn3)[C@H]3COC(=O)[C@H]23)OCO4)cc(OC)c1OC
IC50 (MCF7): > 130 nM
IC50 (SMMC-7721): > 130 nM
IC50 (A549): > 130 nM
IC50 (SW480): > 130 nM
IC50 (HL-60): > 130 nM

COc1cc([C@@H]2c3cc4c(cc3[C@@H](n3cc(COC(=O)CCCCCNC(=O)CCCC[C@@H]5SC[C@@H]6NC(=O)N[C@@H]65)nn3)[C@H]3COC(=O)[C@H]23)OCO4)cc(OC)c1OC
IC50 (MCF7): > 130 nM
IC50 (SMMC-7721): > 130 nM
IC50 (A549): > 130 nM
IC50 (SW480): > 130 nM
IC50 (HL-60): > 130 nM

COc1cc([C@@H]2c3cc4c(cc3C[C@H]3COC(=O)[C@@H]32)OCO4)cc(OC)c1OC(=O)NCC(=O)N1CCN(c2ccc([N+](=O)[O-])cc2)CC1
IC50 (A549): 183 nM
IC50 (HepG2 [1]): 210 nM
IC50 (HeLa): 183 nM

COc1cc([C@@H]2c3cc4c(cc3[C@@H](NC(=O)CCCCCNC(=O)CCCC[C@@H]3SC[C@@H]5NC(=O)N[C@@H]53)[C@H]3COC(=O)[C@H]23)OCO4)cc(OC)c1OC
IC50 (MCF7): > 130 nM
IC50 (SMMC-7721): > 130 nM
IC50 (A549): > 130 nM
IC50 (SW480): > 130 nM
IC50 (HL-60): > 130 nM

COc1ccc(SCc2cn([C@H]3c4cc5c(cc4[C@@H](c4cc(OC)c(OC)c(OC)c4)[C@H]4C(=O)OC[C@@H]43)OCO5)nn2)cc1OC
IC50 (MKN-45): 130 nM
IC50 (B16): 130 nM
IC50 (HepG2 [2]): 130 nM
IC50 (NCI-H1993): 130 nM

COc1cc([C@@H]2c3cc4c(cc3[C@@H](n3cc(COC(=O)CCCC[C@@H]5SC[C@@H]6NC(=O)N[C@@H]65)nn3)[C@H]3COC(=O)[C@H]23)OCO4)cc(OC)c1O
IC50 (MCF7): > 130 nM
IC50 (SMMC-7721): > 130 nM
IC50 (A549): > 130 nM
IC50 (SW480): > 130 nM
IC50 (HL-60): > 130 nM

COc1cc(C(C)=O)ccc1OCc1cn([C@H]2c3cc4c(cc3[C@@H](c3cc(OC)c(OC)c(OC)c3)[C@H]3C(=O)OC[C@@H]32)OCO4)nn1
IC50 (MKN-45): 130 nM
IC50 (B16): 130 nM
IC50 (HepG2 [2]): 130 nM
IC50 (NCI-H1993): 130 nM

COc1cc([C@@H]2c3cc4c(cc3[C@@H](OC(=O)CCCCCNC(=O)CCCC[C@@H]3SC[C@@H]5NC(=O)N[C@@H]53)[C@H]3COC(=O)[C@H]23)OCO4)cc(OC)c1OC
IC50 (MCF7): > 130 nM
IC50 (SMMC-7721): > 130 nM
IC50 (A549): > 130 nM
IC50 (SW480): > 130 nM
IC50 (HL-60): > 130 nM

COc1cc([C@@H]2c3cc4c(cc3[C@H](n3cc(COc5ccc6ccc(=O)oc6c5)nn3)[C@H]3COC(=O)[C@H]23)OCO4)cc(OC)c1OC
IC50 (MKN-45): 130 nM
IC50 (B16): 130 nM
IC50 (HepG2 [2]): 130 nM
IC50 (NCI-H1993): 130 nM

COc1cc([C@@H]2c3cc4c(cc3[C@@H](NC(=O)CCCC[C@@H]3SC[C@@H]5NC(=O)N[C@@H]53)[C@H]3COC(=O)[C@H]23)OCO4)cc(OC)c1O
IC50 (MCF7): > 130 nM
IC50 (SMMC-7721): > 130 nM
IC50 (A549): > 130 nM
IC50 (SW480): > 130 nM
IC50 (HL-60): > 130 nM

COc1cc([C@@H]2c3cc4c(cc3[C@@H](O[C@H]3O[C@H](COC(C)=O)[C@@H](OC(C)=O)[C@H](OC(C)=O)[C@H]3OC(C)=O)[C@H]3COC(=O)[C@H]23)OCO4)cc(OC)c1O
IC50 (MCF7): > 140 nM
IC50 (SMMC-7721): > 140 nM
IC50 (A549): > 140 nM
IC50 (SW480): > 140 nM
IC50 (HL-60): > 140 nM

COc1ccc(SCc2cn([C@H]3c4cc5c(cc4[C@@H](c4cc(OC)c(OC)c(OC)c4)[C@H]4C(=O)OC[C@@H]43)OCO5)nn2)cc1
IC50 (MKN-45): 130 nM
IC50 (B16): 130 nM
IC50 (HepG2 [2]): 130 nM
IC50 (NCI-H1993): 130 nM
